Laboratory results from patent US20080260716A1, “Method and Composition for High Level Disinfection Employing Quaternary Ammonium Compounds” (priority 2004, published 2008).

Tested on: Mycobacterium terrae
Assay: AOAC tuberculocidal test, kill time
Assay type: cell-based
Description: These standards are based on the known or possible risk of contamination of a particular medical device by a particular micro-organism, the pathogenic nature of the organism and other principles in infection control. […] The test panels and criteria are different for “low”, “intermediate” or “high-level disinfection”. These terms are herein used in accordance with current Food and Drug Administration (“FDA”) criteria for levels of disinfection which are detailed in Premarket Notification [510(k)] Submissions for Liquid Chemical Sterilants and High Level Disinfectants FDA 1997: “A germicide that inactivates all microbial pathogens except large number of bacterial endospores when used according to labelling”. In brief, the FDA regulatory requirement for high level disinfectants includes as the most challenging test a 100% kill of Mycobacterium tuberculosis var. bovis (or a specific strain of a suitable surrogate, such as Mycobacterium terrae) in 400 p.p.m. hard water in the presence of 2% horse serum in a quantitative tuberculocidal test.
In the following tables unless otherwise specified references to “kill time” mean the time required to achieve complete kill as defined in the relevant AOAC test (more particularly identified in annexure 1). “No kill” means less than 2 log reduction from the initial population. Unless otherwise specified “QUAT” is benzalkonium chloride, specifically Gardiquat NC-50 (Albright & Wilson). Test points for vegetative bacteria (M. terrae) were 2, 5, 10, 20 and 60 mins. Test points for spores were 0.5, 1, 2, 4, 16, 24, 48 hours. The last column in each table indicates whether the tested combination satisfies the FDA requirement for high level disinfection (“HLD”) or fails to do so (“F”).
AOAC tests for determination of High level Disinfection as defined in current FDA criteria (detailed in “Premarket Notification [510(k)] Submissions for Liquid Chemical Sterilants and High Level Disinfectants FDA 1993”.):
AOAC Tuberculocidal Activity of Disinfectants
AOAC Ref No 965.12, AOAC Official Methods of Analysis (1995)

## benzalkonium chloride [QUAT]
Table 3 Prior art, 0.25% QUAT, 25° C.
  Kill Time M. terrae: >60 min
Table 6 unnumbered test, 2% QUAT + 0.2% Protease (Savinase 16 L), 25° C. + 1% borax
  Kill Time M. terrae: >60 min
Above 1% w/w of quat, 40° C.
  kill time of Mycobacterium terrae: less than 5 mins
Test 1.1, 0.025% QUAT, 25° C.
  Kill Time Mycobacterium terrae: >60 min
Test 1.2, 0.25% QUAT, 25° C.
  Kill Time Mycobacterium terrae: >60 min
Test 2.1, 5% QUAT, 30° C.
  Kill Time Mycobacterium terrae: <5 min
Test 2.2, 1.0% QUAT, 40° C.
  Kill Time Mycobacterium terrae: <5 min
Test 2.3, 2.0% QUAT, 40° C.
  Kill Time Mycobacterium terrae: <5 min
Test 2.4, 5.0% QUAT, 40° C.
  Kill Time Mycobacterium terrae: <5 min
Test 2.5, 1.0% QUAT, 50° C.
  Kill Time Mycobacterium terrae: <5 min
Test 2.6, 2.0% QUAT, 50° C.
  Kill Time Mycobacterium terrae: <5 min
Test 2.7, 5.0% QUAT, 50° C.
  Kill Time Mycobacterium terrae: <5 min
Test 2.8, 1.0% QUAT, 80° C.
  Kill Time Mycobacterium terrae: <5 min
Test 3.1, 0.25% QUAT, 40° C.
  Kill Time M. terrae: >60 min
Test 3.2, 0.25% QUAT, 50° C.
  Kill Time M. terrae: >60 min
Test 3.3, 0.25% QUAT, 60° C.
  Kill Time M. terrae: >60 min
Test 3.4, 0.25% QUAT, 62° C. + ultrasound
  Kill Time M. terrae: >60 min
Test 3.5, 1.0% QUAT, 25° C.
  Kill Time M. terrae: >60 min
Test 3.6, 2.0% QUAT, 25° C.
  Kill Time M. terrae: >60 min
Test 3.7, 5.0% QUAT, 25° C.
  Kill Time M. terrae: >60 min
Test 3.8, 0.6%, 40° C.
  Kill Time M. terrae: >60 min
Test 3.9, 0.6% QUAT, 50° C.
  Kill Time M. terrae: >20 min
Test 4.1, 2% QUAT, 25° C. + 1% borax
  Kill Time M. terrae: >60 min
Test 4.2, 5% QUAT, 25° C. + 1% borax
  Kill Time M. terrae: >60 min
Test 4.3, 1% QUAT, 40° C. + 1% borax
  Kill Time M. terrae: <5 min
Test 4.4, 2% QUAT, 40° C. + 1% borax
  Kill Time M. terrae: <2 min
Test 4.5, 5% QUAT, 40° C. + 1% borax
  Kill Time M. terrae: <2 min
Test 4.6, 2% QUAT, 50° C. + 1% borax
  Kill Time M. terrae: <2 min
Test 4.7, 5% QUAT, 50° C. + 1% borax
  Kill Time M. terrae: <2 min
Test 5.1, 1% QUAT, 40° C. + ultrasound 10 min each hour
  Kill Time M. terrae: <5 min
Test 5.2, 2% QUAT, 40° C. + ultrasound 10 min each hour
  Kill Time M. terrae: <5 min
Test 5.3, 5% QUAT, 40° C. + ultrasound 10 min each hour
  Kill Time M. terrae: <5 min
Test 5.4, 1% QUAT, 40° C. + ultrasound 10 min each hour
  Kill Time M. terrae: <5 min
Test 5.5, 2% QUAT + 1% borax, 40° C. + ultrasound 10 min each hour
  Kill Time M. terrae: <2 min
Test 5.6, 5% QUAT + 1% borax, 40° C. + ultrasound 10 min each hour
  Kill Time M. terrae: <2 min
Test 5.7, 2% QUAT + 1% borax + Protease, 40° C. + ultrasound 10 min each hour
  Kill Time M. terrae: <2 min
Test 6.1, 2% QUAT + 0.2% Protease (Savinase 16 L), 25° C.
  Kill Time M. terrae: >60 min
Test 6.2, 2% QUAT + 0.2% Protease (Savinase 16 L), 40° C.
  Kill Time M. terrae: <5 min
Test 6.3, 2% QUAT + 0.2% Protease (Savinase 16 L), 40° C. + 1% borax
  Kill Time M. terrae: <2 min
Test 6.4, 2% QUAT + 0.2% Protease (Savinase 16 L), 50° C.
  Kill Time M. terrae: <5 min
Test 6.5, 2% QUAT + 0.2% Protease (Savinase 16 L), 50° C. + 1% borax
  Kill Time M. terrae: <2 min
Test 6.6, 2% QUAT + 0.2% Protease (Savinase 16 L), 40° C. + ultrasound 10 min each hour + 1% borax
  Kill Time M. terrae: <2 min
Test 6.7, 2% QUAT + 1% borax + Protease, 40° C. + ultrasound 10 min each hour
  Kill Time M. terrae: <2 min
